According to patent US6897210B2, “Quinazoline derivatives and pharmaceutical compositions containing them” (Zeneca Limited, priority 1996, dated 2005):
Structures can show the parent of a compound that is named as a salt.

Test system: VEGF receptor tyrosine kinase (Flt, KDR)
Assay: In vitro receptor tyrosine kinase inhibition test (VEGF receptor)
Format: biochemical
Conditions: VEGF receptor tyrosine kinase compared with EGF receptor tyrosine kinase
Text: (a) In Vitro Receptor Tyrosine Kinase Inhibition Test
This assay determines the ability of a test compound to inhibit tyrosine kinase activity. […] These may then be expressed in a suitable expression system to obtain polypeptide with tyrosine kinase activity. […] This recombinant construct was co-transfected into insect cells (for example Spodoptera frugiperda 21(Sf21)) with viral DNA (eg Pharmingen BaculoGold) to prepare recombinant baculovirus.
For expression of cFlt tyrosine kinase activity, Sf21 cells were infected with plaque-pure cFlt recombinant virus at a multiplicity of infection of 3 and harvested 48 hours later. […] The suspension was centrifuged for 10 minutes at 13,000 rpm at 4° C., the supernatant (enzyme stock) was removed and stored in aliquots at −70° C. Each new batch of stock enzyme was titrated in the assay by dilution with enzyme diluent (100 mM Hepes pH 7.4, 0.2 mM sodium orthovanadate. 0.1% v/v Triton X100, 0.2 mM dithiothreitol). For a typical batch, stock enzyme is diluted 1 in 2000 with enzyme diluent and 50 μl of dilute enzyme is used for each assay well.
A stock of substrate solution was prepared from a random copolymer containing tyrosine, for example Poly (Glu, Ala, Tyr) 6:3:1 (Sigma P3899), stored as 1 mg/ml stock in PBS at −20° C. and diluted 1 in 500 with PBS for plate coating.
On the day of the assay the substrate solution was discarded and the assay plate wells were washed once with PBST (PBS containing 0.05% v/v Tween 20) and once with 50 mM Hepes pH7.4.
Test compounds were diluted with 10% dimethylsulphoxide (DMSO) and 25 μl of diluted compound was transferred to wells in the washed assay plates. “Total” control wells contained 10% DMSO instead of compound. Twenty five microliters of 40 mM manganese(II)chloride containing 8 μM adenosine-5′-triphosphate (ATP) was added to all test wells except “blank” control wells which contained maganese(II)chloride without ATP. To start the reactions 50 μl of freshly diluted enzyme was added to each well and the plates were incubated at room temperature for 20 minutes. The liquid was then discarded and the wells were washed twice with PBST. […] Plates were then incubated for 20-60 minutes at room temperature until the optical density value of the “total” control wells, measured at 405 nm using a plate reading spectrophotometer, was approximately 1.0.

SMILES	activity against VEGF and EGF receptor tyrosine kinases
COc1cc2c(Nc3ccc(Cl)cc3F)ncnc2cc1OCCNC(=O)OC(C)(C)C [Example 34, 7-(2-[N-tert-butoxycarbonylamino]ethoxy)4-(4-chloro-2-fluoroanilino)6-methoxyquinazoline]	substantially equivalent activity
COc1cc2c(Nc3ccc(Cl)cc3F)ncnc2cc1OCC1OCCO1 [Example 6, 4-(4-chloro-2-fluoroanilino)-7-(1,3-dioxolan-2-ylmethoxy)-6-methoxyquinazoline]	substantially equivalent activity
COCCOCCOc1cc2ncnc(Nc3ccc(Cl)cc3F)c2cc1OC.Cl [Example 5, 4-(4-chloro-2-fluoroanilino)6-methoxy-7-(2(2-methoxyethoxy)ethoxy)quinazoline hydrochloride]	substantially equivalent activity
COc1cc2c(Nc3ccc(Cl)cc3F)ncnc2cc1OC/C=C/CN1CCCC1.Cl [Example 17]	substantially equivalent activity
COc1cc2c(Nc3ccc(Cl)cc3F)ncnc2cc1OCCCN1CC(C)OC(C)C1.Cl (stereo not shown) [Example 55, 4-(4-chloro-2-fluoroanilino)7(3(2,6-dimethylmorpholino)propoxy)6-methoxyquinazoline hydrochloride]	substantially equivalent activity
COc1cc2c(Nc3ccc(Cl)cc3F)ncnc2cc1OCCCN(C)S(C)(=O)=O.Cl [Example 59]	substantially equivalent activity
Cl.Fc1cc(Cl)ccc1NCOc1ncnc2cc(SCCCN3CCOCC3)ccc12 [Example 56, 4-(4-chloro-2-fluoroanilino)methoxy-7-(3-morpholinopropylthio)quinazoline hydrochloride]	substantially equivalent activity
COc1cc2c(Nc3ccc(Cl)cc3F)ncnc2cc1OCCOCCN1CCN(C)CC1.Cl [Example 63]	substantially equivalent activity
COc1cc2c(Nc3ccc(Cl)cc3F)ncnc2cc1OCCCS(C)(=O)=O [Example 16, 4-(4-chloro-2-fluoroanilino)-6-methoxy-7-(3-(methylsulphonyl)propoxy)quinazoline]	substantially equivalent activity
COc1cc2c(Nc3ccc(Cl)cc3F)ncnc2cc1OCC#CCN1CCOCC1.Cl.O [Example 10, 4-(4-chloro-2-fluoroanilino)-6-methoxy-7-(4-morpholinobut-2-yn-1-yloxy)quinazoline hydrochloride hydrate]	substantially equivalent activity
COCC(=O)N(C)CCOc1cc2ncnc(Nc3ccc(Cl)cc3F)c2cc1OC.Cl [Example 51, 4-(4-chloro-2-fluoroanilino) methoxy-7-(2-([N-methyl-N-methoxyacetyl]amino)ethoxy)quinazoline hydrochloride]	substantially equivalent activity

Next, values leading:

activity against VEGF and EGF receptor tyrosine kinases	SMILES
substantially equivalent activity	COc1cc2c(Nc3ccc(Cl)cc3F)ncnc2cc1OCCOCCN1CCOCC1.Cl [Example 53, 4-(4-chloro-2-fluoroanilino)-6-methoxy-7-(22-morpholinoethoxy)ethoxy)quinazoline hydrochloride]
substantially equivalent activity	COc1cc2c(Nc3ccc(Br)cc3F)ncnc2cc1OCCCN1CCCC1=O.Cl [Example 48]
substantially equivalent activity	COc1cc2c(Nc3ccc(Cl)cc3F)ncnc2cc1OCCN1CCOCC1=O.Cl [Example 52, 4-(4-chloro-2-fluoroanilino)6-methoxy-7-(2-(3-oxomorpholino)ethoxy)quinazoline hydrochloride]
substantially equivalent activity	COc1cc2c(Nc3ccc(Br)cc3F)ncnc2cc1OCCCN1CCC[C@H]1C(N)=O.Cl [Example 50, (S)-4-(4-bromo-2-fluoroanilino)-7-(3-(2-carbamoylpyrrolidin-1-yl)propoxy)6-methoxyquinazoline hydrochloride]
substantially equivalent activity	COc1cc2c(Nc3ccc(Cl)cc3F)ncnc2cc1OCCCN1CCC[C@H]1C(N)=O.Cl [Example 54, (S)-7-(3-(2-carbamoylpyrrolidin-1-yl)propoxy)4-(4-chloro-2-fluoroanilino)-6-methoxyquinazoline hydrochloride]
substantially equivalent activity	COc1cc2c(Nc3ccc(Cl)cc3F)ncnc2cc1OCCOCCN1CCCC1.Cl [Example 64, 4-(4-chloro-2-fluoroanilino)-6-methoxy-7-(2-(2-pyrrolidin-1-ylethoxy)ethoxy)quinazoline hydrochloride]
substantially equivalent activity	COc1cc2c(Nc3ccc(Br)cc3F)ncnc2cc1OCCN1CCOCC1=O.Cl [Example 67, 4-(4-bromo-2-fluoroanilino)-6-methoxy-7-(2-(3 oxomorpholino)ethoxy)quinazoline hydrochloride]
substantially equivalent activity	COc1cc2c(Nc3ccc(Cl)cc3F)ncnc2cc1OC/C=C/CN1CCOCC1.Cl [Example 66, (E)-4-(4-chloro-2-fluoroanilino)-6-methoxy-7-(4-morpholinobut-2-en-1-yloxy)quinazoline hydrochloride]
substantially equivalent activity	COc1cc2c(Nc3ccc(Cl)cc3F)ncnc2cc1OCCCN1CCCC1=O.Cl [Example 47, 4-(4-chloro-2-fluoroanilino)-6-methoxy-7-(3-(2-oxopyrrolidin-1-yl)propoxy)quinazoline hydrochloride]
substantially equivalent activity	COc1cc2c(Nc3ccc(Cl)cc3F)ncnc2cc1OCCN1CCCC1=O.Cl [Example 39, 4-(4-chloro-2-fluoroanilino)6-methoxy-7-(2-(2-oxopyrrolidin-1-yl)ethoxy)quinazoline hydrochloride]
substantially equivalent activity	COc1cc2c(Nc3ccc(Br)cc3F)ncnc2cc1OCCCN(C)S(C)(=O)=O.Cl [Example 49, 4(4bromo-2-fluoroanilino)-6-methoxy-7-(3([N-methyl-N-methylsulphonyl]amino)propoxy)quinazoline hydrochloride]
substantially equivalent activity	COc1cc2c(Nc3ccc(Br)cc3F)ncnc2cc1OCCN1CCCC1=O.Cl [Example 68, 4-(4-bromo-2-fluoroanilino)methoxy-7-(2-(2-oxpyrrolidin-1-yl)ethoxy)quinazoline hydrochloride]
substantially equivalent activity	COc1cc2c(Nc3ccc(Cl)cc3F)ncnc2cc1OCCN1CCSCC1 [Example 12, 4-(4-chloro-2-fluoroanilino)-6-methoxy-7-(2-thiomorpholinoethoxy)quinazoline]

Test system: not given
Assay: not given
Conditions: not given

SMILES	melting point [°C]
COc1cc2c(Nc3ccc(Cl)cc3F)ncnc2cc1OCCNC(=O)OC(C)(C)C [Example 34, 7-(2-[N-tert-butoxycarbonylamino]ethoxy)4-(4-chloro-2-fluoroanilino)6-methoxyquinazoline]	190 to 191
COc1cc2ncnc(Nc3ccc(C)c(O)c3)c2c([N+](=O)[O-])c1OC.Cl	206 to 208
COCCOc1cc2ncnc(Nc3ccc(C)c(OC(C)=O)c3)c2cc1OC [Example 1, 4-(3-acetoxy-4-methylanilino)-6-methoxy-7-(2-methoxyethoxy)quinazoline]	180 to 183
COc1cc2c(Nc3ccc(Cl)cc3F)ncnc2cc1OCC#CCN1CCOCC1.Cl.O (hydrate or solvate) [Example 10, 4-(4-chloro-2-fluoroanilino)-6-methoxy-7-(4-morpholinobut-2-yn-1-yloxy)quinazoline hydrochloride hydrate]	175 to 178

The remaining lines, values ahead:

melting point [°C]	SMILES
227 to 230	COc1cc2c(Nc3ccc(Cl)cc3F)ncnc2cc1OCCS(C)(=O)=O [Example 30, 4-(4-chloro-2-fluoroanilino)-6-methoxy-7-(2-methylsulphonylethoxy)quinazoline]
> 250	COc1cc2c(Nc3ccc(Cl)cc3F)ncnc2cc1OCCCS(C)(=O)=O (as salt: hydrochloride) [Example 16, 4-(4-chloro-2-fluoroanilino)-6-methoxy-7-(3-(methylsulphonyl)propoxy)quinazoline]
> 250	COc1cc2c(Nc3ccc(Br)cc3F)ncnc2cc1OCCCS(C)(=O)=O [Example 32, 4-(4-bromo-2-fluoroanilino)6-methoxy-7-(3-methylsulphonylpropoxy)quinazoline]
250 to 252	COc1cc2c(Nc3ccc(Cl)cc3F)ncnc2cc1OCCN1CCCC1=O.Cl [Example 39, 4-(4-chloro-2-fluoroanilino)6-methoxy-7-(2-(2-oxopyrrolidin-1-yl)ethoxy)quinazoline hydrochloride]
181 to 182	COc1cc2c(Nc3ccc(Cl)cc3F)ncnc2cc1OCCN1CCSCC1 [Example 12, 4-(4-chloro-2-fluoroanilino)-6-methoxy-7-(2-thiomorpholinoethoxy)quinazoline]
202 to 203	COc1cc2c(Nc3ccc(Cl)cc3F)ncnc2cc1OCCN1C(=O)CCCC1=O [Example 35, 4-(4-chloro-2-fluoroanilino)-7-(2-(2,6-dioxopiperidino)ethoxy)-6-methoxyquinazoline]
